The text below walks through data of patent US20220257552A1, “METHODS OF PRESCREENING AND TREATING BREAST CANCERS WITH SELECTIVE ANDROGEN RECEPTOR MODULATORS” (priority 2021, published 2022).

Assay [1] in a line: Phase 3 trials in non-small cell lung cancer (muscle wasting). In kind it is in vivo, human. The conditions noted are these: 3 mg daily. The text has this: These include: 1. Protocol G100401, a Phase 1 single ascending dose study in 96 healthy, young, male volunteers; 2. Protocol G100402, a Phase 1 multiple ascending dose study in 50 healthy, young, male volunteers, and 23 elderly male volunteers with truncal obesity; 3. Protocol G100503, a Phase 1 single dose pharmacokinetic study to assess the effect of a dosage regimen that simulates a sustained release formulation to an immediate release formulation in 18 healthy, young male volunteers and 18 postmenopausal women; 4. Protocol G100506, a Phase 1 single dose pharmacokinetic study to assess the relative bioavailability of a 3 mg hard shell capsule formulation to be used during continued clinical development and to assess the effect of food on the pharmacokinetics of the 3 mg softgel formulation in 27 healthy, young, male volunteers; 5. Protocol 006, a Phase 1 single dose and multiple dose pharmacokinetic study in 24 postmenopausal, Japanese women; 6. Protocol G200501, a Phase 2 study in 60 postmenopausal women and 60 elderly men to assess lean body mass and physical function; 7. Protocol 003, a Phase 1b study in 44 postmenopausal women; 8.

Assay [2] concerns MCF-7 cells expressing AR. Kind of assay: MCF-7-AR cell viability (SRB). Type of assay: cell-based. The conditions noted are these: 6 days. The procedure:
After 6 days of treatment, cells were harvested, and the number of cells was counted. […] Medium was changed after 3 days and re-treated. Cells were fixed after 6 days of treatment and the cell viability was measured by SRB assay. […] Medium was changed, and the cells were re-treated on days 4 and 7. Medium was collected, pooled from triplicates, and stored in −80° C. After 10 days of treatment, cells were fixed, and cell viability was measured using SRB. MCF-7 cells stably transfected with GFP (MCF-7-GFP) were plated in growth medium. Twenty-four hours after plating, cells were fed with the conditioned medium obtained from patient-derived fibroblasts as indicated above. Cells were fed for 10 days with conditioned medium, with medium changed on days 4 and 7. After 10 days of treatment, cells were fixed, and the viability was measured by SRB assay. […] AR-positive, but ER-negative HCI-9 PDX was surgically implanted as 1 mm^3 fragments under the mammary fat pad in NSG mice (n=8-10/group). […] Tumor volume was measured thrice weekly. […] ER-α from HCI-13 was cloned into pCR3.1 vector. […] Values are expressed as average±S.E. from n=3-4/data point.
(§1) Cells were plated at varying densities in growth medium in 96 well plates. Cells were treated as indicated in the figures and viability measured using sulforhodamine B (SRB) or the number of cells counted using Coulter counter.

In the next assay the test system is HCI-13 PDX. Description: HCI-13 (HCI-013) patient-derived xenograft in NSG mice. Type of assay: in vivo. The conditions noted are these: 10 mpk p.o. The protocol:
HCI-013 tumor pieces (1 mm^3) were implanted surgically (one per mouse) under the skin on the flanks of NSG mice. Tumors were allowed to grow and reach approximately 100 mm^3 volume (1*W*W*0.526). […] Tumor volume was measured weekly and represented as % change in tumor volume. Mice were sacrificed, tumors weighed, and stored for further analysis.
All animal protocols were approved by The University of Tennessee Health Science Center (UTHSC) Institutional Animal Care and Use Research Committee. Xenograft experiments were performed as previously published (Narayanan et al. (2014) PLoS One 9, e103202). Briefly, 3 million MCF-7 cells were suspended in 0.05 ml MEM+10% FBS and 0.05 ml Matrigel/nude mouse and were injected subcutaneously. Once the tumor size reached 100-200 mm^3, the animals were randomized and treated orally with the indicated drugs formulated in DMSO:PEG-300 (15:85). HCI-7, HCI-9, and HCI-13 PDXs were gifts kindly donated by Dr. Alana Welm (Huntsman Cancer Institute, Salt Lake City, Utah). HCI PDX tumor fragments (1 mm^3) were surgically implanted under the mammary fat pad in female NOD SCID Gamma (NSG) mice. Tumor volume was measured twice weekly for MCF-7 xenograft and once or twice weekly for HCI PDXs. At the end of the study, animals were sacrificed and tumors were excised, weighed, and stored for various analyses.

Assay [3] deals with ZR-75-1 breast cancer cells. Kind of assay: ZR-75-1 cell proliferation (cell count). In kind it is cell-based. Particulars: 6 days, dose response. The procedure:
as §1
Although a few previous reports have shown that MCF-7 cells express AR and respond to AR ligands (Buchanan et al. (2005) Cancer Res 65, 8487-8496), the MCF-7 cell line clone in the study lacks or minimally expresses AR, which is in concordance with other reports (De Amicis et al. (2010) Breast Cancer Res Treat 121, 1-11).

For `C[C@](O)(COc1ccc(C#N)cc1)C(=O)Nc1ccc(C#N)c(C(F)(F)F)c1` [Formula IX, (S)—N-(4-Cyano-3-(trifluoromethyl)phenyl)-3-(4-cyanophenoxy)-2-hydroxy-2-methylpropanamide], the lean body mass result in assay [1] is on record as “increased”. The “proliferation / cell viability” value in assay [2] is “inhibited proliferation”. Moreover, the “tumor weight at sacrifice” value in the assay with HCI-13 PDX is “almost complete inhibition of tumor”. Moreover, the proliferation entry in assay [3] was “significantly reduced dose dependently”.
